In US8546608B2, “Proteasome inhibitors and methods of using the same” (Cephalon, Inc., priority 2003, dated 2013) one finds EC50, melting point and IC50 data, which are given here for nine molecules.

pEC50, pIC50: −log10 of the molar value. Read-outs that look alike come from different tables or passages of the source.

For data set [1], the target named is T1, proteasome in Molt-4 cells (human leukemia) (Homo sapiens, UniProt P20618+P28074).
T1 sequence (P28074 60-263): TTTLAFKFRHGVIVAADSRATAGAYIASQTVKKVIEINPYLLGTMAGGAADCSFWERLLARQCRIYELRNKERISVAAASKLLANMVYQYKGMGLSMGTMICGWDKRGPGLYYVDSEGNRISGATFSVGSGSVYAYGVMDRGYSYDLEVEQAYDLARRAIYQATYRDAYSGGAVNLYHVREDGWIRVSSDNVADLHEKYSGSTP
T1 sequence (P20618 29-241): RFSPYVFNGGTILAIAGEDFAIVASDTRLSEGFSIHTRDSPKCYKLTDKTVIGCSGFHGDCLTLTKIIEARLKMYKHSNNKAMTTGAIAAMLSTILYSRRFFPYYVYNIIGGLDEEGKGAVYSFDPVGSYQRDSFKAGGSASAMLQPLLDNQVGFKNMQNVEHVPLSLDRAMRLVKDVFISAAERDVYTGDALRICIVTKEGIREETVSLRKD
Format: cell-based. The method in brief: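 Intact Molt-4 cells (6×10^6 cells/mL) in HEPES-buffered saline were preincubated with inhibitor 15 min at 37 °C, then given cell-permeable MeOSuc-FLF-AFC at 25 μM final.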

Data set [2] concerns the target T2, 20S Human Erythrocyte Proteasome (HEP) (Homo sapiens, UniProt P20618+P28074).
T2 construct: 20S Human Erythrocyte Proteasome (HEP), purchased from Immatics Biotechnologies Inc; purchased Immatics Biotechnologies Inc., Tübingen, Germany; host or cells: human erythrocytes (natural source)
Description: Chymotrypsin-like activity of 20S Human Erythrocyte Proteasome (HEP), IC50 determination. Format: biochemical. To be noted: assay of Example C, inhibition of HEP. In a few lines:
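20S proteasome at 0.2 μg/mL (about 0.6 nM catalytic sites) in 20 mM Tris with 0.04% SDS, preincubated 15 min at 37° C with inhibitor before Suc-LLVY-AMC (100 μM final). AMC fluorescence read in the linear range; triplicates, IC50 from concentration series.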

Setting [3] is: assay of Example E, inhibition of MOLT4; read-out: MOLT4 (EC50).

Take `CCCCc1ccc(C(=O)N[C@@H](CNC(=O)c2ccc(-c3nn[nH]n3)cc2)C(=O)N[C@@H](CC(C)C)B(O)O)cc1` [E.5.24, Boronic acid, [(1R)-1-[[(2S)-3-[4-(1H-tetrazolyl)-phenylcarbonylamino]-2-[(4-butylbenzoylamino)]-1-oxopropyl]amino]-3-methylbutyl]]: the melting point was greater than 250 °C. In addition, the pEC50 in data set [1] (setting [3]) was 5.70 to 6.70. Further, in data set [2], the negative logarithm of the IC50 (pIC50) is greater than 8.00.
The molecule `CCCCc1ccc(C(=O)N[C@@H](CNC(=O)c2ccno2)C(=O)N[C@@H](CC(C)C)B(O)O)cc1` [E.5.25, Boronic acid, [(1R)-1-[[(2S)-3-(2-isoxazolylcarbonylamino)-2-[(4-butylbenzoylamino)]-1-oxopropyl]amino]-3-methylbutyl]] showed a melting point of 175 to 180 °C. In addition, the pEC50 in data set [1] (setting [3]) is greater than 6.70. In addition, the negative-log IC50 (pIC50) in data set [2] is greater than 8.00.
The corresponding values for `CCCCc1ccc(C(=O)N[C@@H](CNS(=O)(=O)c2cn(C)cn2)C(=O)N[C@@H](CC(C)C)B(O)O)cc1` [E.5.26, Boronic acid, [(1R)-1-[[(2S)-3-[1-methyl-1H-imidazole-4-sulfamoyl]-2-[(4-butylbenzoyl)amino]-1-oxopropyl]amino]-3-methylbutyl]] are 120 to 123 °C, 5.70 to 6.70 and greater than 8.00.
For the molecule `CCCCc1ccc(C(=O)N[C@@H](CNS(=O)(=O)c2ccc(N3CCOCC3)nc2)C(=O)N[C@@H](CC(C)C)B(O)O)cc1.Cl` [E.5.27, Boronic acid, [(1R)-1-[[(2S)-3-[6-morpholin-4-yl-pyridine-3-sulfamoyl]-2-[(4-butylbenzoyl)amino]-1-oxopropyl]amino]-3-methylbutyl] hydrochloride], the melting point fell in the range of 182 to 184 °C. Also, the pEC50 in data set [1] (read-out: MOLT4 (EC50); assay of Example E, inhibition of MOLT4) is greater than 6.70. The molecule further had a negative logarithm of the IC50 (pIC50) in data set [2] greater than 8.00.
`CCCCc1ccc(C(=O)N[C@@H](CNC(=O)c2ccc(N3CCOCC3)nc2)C(=O)N[C@@H](CC(C)C)B(O)O)cc1` [E.5.28, Boronic acid, [(1R)-1-[[(2S)-3-(6-morpholinonicotinamide]-2-[(4-butylbenzoyl)amino]-1-oxopropyl]amino]-3-methylbutyl]] came in with a melting point of 178 to 180 °C. Moreover, the pEC50 in data set [1] (setting [3]) is greater than 6.70. In data set [2], this molecule gave a pIC50 greater than 8.00.
`CC(C)C[C@H](NC(=O)[C@H](CNS(=O)(=O)c1ccc(F)cc1)NC(=O)c1ccc(Oc2ccccc2)cc1)B(O)O` [E.5.30, Boronic acid, [(1R)-1-[[(2S)-3-[4-fluoro-benzenesulfonamide]-2-[(4-phenoxybenzoyl)amino]-1-oxopropyl]amino]-3-methylbutyl]] yielded a melting point of 150 to 155 °C. Moreover, the negative-log EC50 (pEC50) in data set [1] (setting [3]) was 5.70 to 6.70. For the same molecule, the pIC50 in data set [2] is greater than 8.00.
Molecule `Cc1cc(C(=O)NC[C@H](NC(=O)c2ccc(Oc3ccccc3)cc2)C(=O)N[C@@H](CC(C)C)B(O)O)n(C)n1` [E.5.31] showed a melting point of 145 to 148 °C. In addition, the pEC50 in data set [1] (setting [3]) is greater than 6.70. In addition, the negative logarithm of the IC50 (pIC50) in data set [2] was greater than 8.00.
The matching figures for `CC(C)C[C@H](NC(=O)[C@H](CNC(=O)Nc1ccccc1)NC(=O)c1ccc(Oc2ccccc2)cc1)B(O)O` [E.5.32, Boronic acid, [(1R)-1-[[(2S)-3-(4-phenylureido]-2-[(4-phenoxybenzoyl)amino]-1-oxopropyl]amino]-3-methylbutyl]]: 155 to 158 °C, greater than 6.70 and greater than 8.00.
The molecule `CCCCc1ccc(C(=O)N[C@@H](CNC(=O)c2ccc(-c3ccccc3)cc2)C(=O)N[C@@H](CC(C)C)B(O)O)cc1` [E.5.33, Boronic acid, [(1R)-1-[[(2S)-3-(4-phenybenzamide]-2-[(4-butylbenzoyl)amino]-1-oxopropyl]amino]-3-methylbutyl]] had a melting point of 178 to 180 °C. The negative logarithm of the EC50 (pEC50) in data set [1] (setting [3]) is 5.70 to 6.70. Moreover, in data set [2], the pIC50 is greater than 8.00.

By pEC50 is commonly meant the EC50 on a negative log10 scale, so that one unit is a factor of ten. For orientation: melting point means the temperature, or range, at which the solid turns liquid. Broadly, the pIC50 is the IC50 on a negative log10 scale, so that one unit is a factor of ten.
